Source: US20080103127A1, “METHODS FOR TREATING DISRUPTIVE BEHAVIOR DISORDERS” (priority 2006, published 2008)
Marks after values point to notes of the source that are not given here.

Legend:
[1] = test system: isolation-induced aggressive behavior in pairs of mice; test: Isolation-induced aggression model in pairs of mice; type: in vivo, CrI:CD-1(ICR)BR albino mice
Protocol: The effects of test compound on the aggressive behavior of CrI:CD-1(ICR)BR albino mice were evaluated using the paradigm of isolation-induced aggression.
Male CrI:CD-1(ICR)BR albino mice, fasted overnight, were individually housed for 5 weeks in plastic cages on wood-chip bedding. Subsequently, they were paired for 1 minute daily for several days by placing one individually housed mouse (intruder) into the resident cage of another individually housed mouse (resident). The 1-minute pairing of intruder and resident mouse elicits aggressive behavior. Pairs of mice showing consistent aggressive behavior when paired for 1 minute, during several days were selected as subjects for drug testing.
Test compound (10 to 40 mg/kg p.o.) or the vehicle (methocel; aqueous 0.5%, w/v, hydroxypropyl methylcellulose solution) was administered (10 mL/kg) to the resident and intruder mouse. One and 4 hours after dosing, the mice were paired and the onset of fighting was recorded. […] The duration of fighting during a 1-minute test period was recorded. Mice were re-used in this procedure after several days to a week to allow metabolism and elimination of test compounds. The mice weighed 32 to 49 g at the time of testing and were fasted overnight before dosing. Mice were euthanized with CO2 if they were sick or injured.
Results were expressed as the median onset of fighting and median duration of fighting in vehicle and drug-treated groups. The statistical significance of an increase in the median onset or a reduction in the median duration of fighting in pairs of mice given test compound or its vehicle 1 and 4 hours after administration was determined using the nonparametric Wilcoxon test (p<0.05, 1-tailed).

[2] = test system: general behavior of male mice; test: General behavior of male mice by visual observation using a checklist of behaviors; type: in vivo; details: for Number of Mice Affected: Decreased Open Field Activity / Number of Mice Affected: Decreased Startle Reflex / Number of Mice Affected: Extensor Limb Tone (hind limb) / Number of Mice Affected: Impaired Horizontal Screen Performance / Number of Mice Affected: Impaired Visual Placing Reflex / Number of Mice Affected: Locomotor Ataxia / Number of Mice Affected: Loss of Corneal Reflex / Number of Mice Affected: Loss of Pinnal Reflex / Number of Mice Affected: Loss of Righting Reflex / Number of Mice Affected: Passive Response to Handling / Number of Mice Affected: Reduced Skin Plasticity / Number of Mice Affected: Soft Body Tone / Number of Mice Affected: Tail Pinch Response, Absent: N = 3/group
Protocol: The effects of test compound on general behavior were evaluated by visual observation using a checklist of behaviors.

[3] = 10 mg/kg p.o., 1 hour after administration
[4] = 10 mg/kg p.o., 4 hours after administration
[5] = 20 mg/kg p.o., 1 hour after administration
[6] = 20 mg/kg p.o., 4 hours after administration
[7] = 30 mg/kg p.o., 1 hour after administration
[8] = 30 mg/kg p.o., 4 hours after administration
[9] = 40 mg/kg p.o., 1 hour after administration
[10] = 40 mg/kg p.o., 4 hours after administration

NC(=O)OC[C@@H](O)c1ccccc1Cl [COMPOUND #7, carisbamate]
Median Duration of isolation-induced fighting [1, 3]: 28 s | Median Onset of isolation-induced fighting [1, 3]: 5 s | Median Duration of isolation-induced fighting [1, 4]: 6 s | Median Onset of isolation-induced fighting [1, 4]: 4 s | Median Duration of isolation-induced fighting [1, 5]: 20 s | Median Onset of isolation-induced fighting [1, 5]: 11 s | Median Duration of isolation-induced fighting [1, 6]: 26 s | onset of initiation of fighting compared to vehicle-treated group [1, 6]: significantly shortened | Median Duration of isolation-induced fighting [1, 7]: 18 s | Median Onset of isolation-induced fighting [1, 7]: 14 s | Median Duration of isolation-induced fighting [1, 8]: 9.5 s | Median Onset of isolation-induced fighting [1, 8]: 4 s | Median Duration of isolation-induced fighting [1, 9]: 0.5^b sec | Median Onset of isolation-induced fighting [1, 9]: 40 s | isolation-induced aggressive behavior in pairs of mice ([1]; 40 mg/kg p.o., 1 hour after administration, p<0.05): statistically significantly inhibited | Median Duration of isolation-induced fighting [1, 10]: 20 s | Median Onset of isolation-induced fighting [1, 10]: 17 s | median duration of fighting compared to vehicle-treated groups ([1]; any group (10 to 40 mg/kg p.o.), 4 hours after administration): not affected | Number of Mice Affected: Decreased Open Field Activity ([2]; 40 mg/kg p.o., 1 h): 0 | Number of Mice Affected: Decreased Startle Reflex ([2]; 40 mg/kg p.o., 1 h): 0 | Number of Mice Affected: Extensor Limb Tone (hind limb) ([2]; 40 mg/kg p.o., 1 h): 0 | Number of Mice Affected: Impaired Horizontal Screen Performance ([2]; 40 mg/kg p.o., 1 h): 0 | Number of Mice Affected: Impaired Visual Placing Reflex ([2]; 40 mg/kg p.o., 1 h): 0 | Number of Mice Affected: Locomotor Ataxia ([2]; 40 mg/kg p.o., 1 h): 0 | Number of Mice Affected: Loss of Corneal Reflex ([2]; 40 mg/kg p.o., 1 h): 0 | Number of Mice Affected: Loss of Pinnal Reflex ([2]; 40 mg/kg p.o., 1 h): 0 | Number of Mice Affected: Loss of Righting Reflex ([2]; 40 mg/kg p.o., 1 h): 0 | Number of Mice Affected: Passive Response to Handling ([2]; 40 mg/kg p.o., 1 h): 0 | Number of Mice Affected: Reduced Skin Plasticity ([2]; 40 mg/kg p.o., 1 h): 0 | Number of Mice Affected: Soft Body Tone ([2]; 40 mg/kg p.o., 1 h): 0 | Number of Mice Affected: Tail Pinch Response, Absent ([2]; 40 mg/kg p.o., 1 h): 0 | Number of Mice Affected: Decreased Open Field Activity ([2]; 40 mg/kg p.o., 4 h): 0 | Number of Mice Affected: Decreased Startle Reflex ([2]; 40 mg/kg p.o., 4 h): 0 | Number of Mice Affected: Extensor Limb Tone (hind limb) ([2]; 40 mg/kg p.o., 4 h): 0 | Number of Mice Affected: Impaired Horizontal Screen Performance ([2]; 40 mg/kg p.o., 4 h): 0 | Number of Mice Affected: Impaired Visual Placing Reflex ([2]; 40 mg/kg p.o., 4 h): 0 | Number of Mice Affected: Locomotor Ataxia ([2]; 40 mg/kg p.o., 4 h): 0 | Number of Mice Affected: Loss of Corneal Reflex ([2]; 40 mg/kg p.o., 4 h): 0 | Number of Mice Affected: Loss of Pinnal Reflex ([2]; 40 mg/kg p.o., 4 h): 0 | Number of Mice Affected: Loss of Righting Reflex ([2]; 40 mg/kg p.o., 4 h): 0 | Number of Mice Affected: Passive Response to Handling ([2]; 40 mg/kg p.o., 4 h): 0 | Number of Mice Affected: Reduced Skin Plasticity ([2]; 40 mg/kg p.o., 4 h): 0 | Number of Mice Affected: Soft Body Tone ([2]; 40 mg/kg p.o., 4 h): 0 | Number of Mice Affected: Tail Pinch Response, Absent ([2]; 40 mg/kg p.o., 4 h): 0 | Number of Mice Affected: Decreased Open Field Activity ([2]; 100 mg/kg p.o., 1 h): 0 | Number of Mice Affected: Decreased Startle Reflex ([2]; 100 mg/kg p.o., 1 h): 0 | Number of Mice Affected: Extensor Limb Tone (hind limb) ([2]; 100 mg/kg p.o., 1 h): 0 | Number of Mice Affected: Impaired Horizontal Screen Performance ([2]; 100 mg/kg p.o., 1 h): 0 | Number of Mice Affected: Impaired Visual Placing Reflex ([2]; 100 mg/kg p.o., 1 h): 0 | Number of Mice Affected: Locomotor Ataxia ([2]; 100 mg/kg p.o., 1 h): 0 | Number of Mice Affected: Loss of Corneal Reflex ([2]; 100 mg/kg p.o., 1 h): 0 | Number of Mice Affected: Loss of Pinnal Reflex ([2]; 100 mg/kg p.o., 1 h): 0 | Number of Mice Affected: Loss of Righting Reflex ([2]; 100 mg/kg p.o., 1 h): 0 | Number of Mice Affected: Passive Response to Handling ([2]; 100 mg/kg p.o., 1 h): 0 | Number of Mice Affected: Reduced Skin Plasticity ([2]; 100 mg/kg p.o., 1 h): 0 | Number of Mice Affected: Soft Body Tone ([2]; 100 mg/kg p.o., 1 h): 0 | Number of Mice Affected: Tail Pinch Response, Absent ([2]; 100 mg/kg p.o., 1 h): 0 | Number of Mice Affected: Decreased Open Field Activity ([2]; 100 mg/kg p.o., 4 h): 0 | Number of Mice Affected: Decreased Startle Reflex ([2]; 100 mg/kg p.o., 4 h): 0 | Number of Mice Affected: Extensor Limb Tone (hind limb) ([2]; 100 mg/kg p.o., 4 h): 0 | Number of Mice Affected: Impaired Horizontal Screen Performance ([2]; 100 mg/kg p.o., 4 h): 0 | Number of Mice Affected: Impaired Visual Placing Reflex ([2]; 100 mg/kg p.o., 4 h): 0 | Number of Mice Affected: Locomotor Ataxia ([2]; 100 mg/kg p.o., 4 h): 0 | Number of Mice Affected: Loss of Corneal Reflex ([2]; 100 mg/kg p.o., 4 h): 0 | Number of Mice Affected: Loss of Pinnal Reflex ([2]; 100 mg/kg p.o., 4 h): 0 | Number of Mice Affected: Loss of Righting Reflex ([2]; 100 mg/kg p.o., 4 h): 0 | Number of Mice Affected: Passive Response to Handling ([2]; 100 mg/kg p.o., 4 h): 0 | Number of Mice Affected: Reduced Skin Plasticity ([2]; 100 mg/kg p.o., 4 h): 0 | Number of Mice Affected: Soft Body Tone ([2]; 100 mg/kg p.o., 4 h): 0 | Number of Mice Affected: Tail Pinch Response, Absent ([2]; 100 mg/kg p.o., 4 h): 0 | effect on general behavior in mice ([2]; 300 mg/kg p.o.): produced sedation | Number of Mice Affected: Decreased Open Field Activity ([2]; 300 mg/kg p.o., 1 h): 3 | Number of Mice Affected: Decreased Startle Reflex ([2]; 300 mg/kg p.o., 1 h): 3 | Number of Mice Affected: Extensor Limb Tone (hind limb) ([2]; 300 mg/kg p.o., 1 h): 3 | Number of Mice Affected: Impaired Horizontal Screen Performance ([2]; 300 mg/kg p.o., 1 h): 3 | Number of Mice Affected: Impaired Visual Placing Reflex ([2]; 300 mg/kg p.o., 1 h): 3 | Number of Mice Affected: Locomotor Ataxia ([2]; 300 mg/kg p.o., 1 h): 0 | Number of Mice Affected: Loss of Corneal Reflex ([2]; 300 mg/kg p.o., 1 h): 3 | Number of Mice Affected: Loss of Pinnal Reflex ([2]; 300 mg/kg p.o., 1 h): 3 | Number of Mice Affected: Loss of Righting Reflex ([2]; 300 mg/kg p.o., 1 h): 3 | Number of Mice Affected: Passive Response to Handling ([2]; 300 mg/kg p.o., 1 h): 3 | Number of Mice Affected: Reduced Skin Plasticity ([2]; 300 mg/kg p.o., 1 h): 3 | Number of Mice Affected: Soft Body Tone ([2]; 300 mg/kg p.o., 1 h): 3 | Number of Mice Affected: Tail Pinch Response, Absent ([2]; 300 mg/kg p.o., 1 h): 3 | Number of Mice Affected: Decreased Open Field Activity ([2]; 300 mg/kg p.o., 4 h): 2 | Number of Mice Affected: Decreased Startle Reflex ([2]; 300 mg/kg p.o., 4 h): 0 | Number of Mice Affected: Extensor Limb Tone (hind limb) ([2]; 300 mg/kg p.o., 4 h): 2 | Number of Mice Affected: Impaired Horizontal Screen Performance ([2]; 300 mg/kg p.o., 4 h): 2 | Number of Mice Affected: Impaired Visual Placing Reflex ([2]; 300 mg/kg p.o., 4 h): 0 | Number of Mice Affected: Locomotor Ataxia ([2]; 300 mg/kg p.o., 4 h): 2 | Number of Mice Affected: Loss of Corneal Reflex ([2]; 300 mg/kg p.o., 4 h): 0 | Number of Mice Affected: Loss of Pinnal Reflex ([2]; 300 mg/kg p.o., 4 h): 0 | Number of Mice Affected: Loss of Righting Reflex ([2]; 300 mg/kg p.o., 4 h): 0 | Number of Mice Affected: Passive Response to Handling ([2]; 300 mg/kg p.o., 4 h): 0 | Number of Mice Affected: Reduced Skin Plasticity ([2]; 300 mg/kg p.o., 4 h): 0 | Number of Mice Affected: Soft Body Tone ([2]; 300 mg/kg p.o., 4 h): 2 | Number of Mice Affected: Tail Pinch Response, Absent ([2]; 300 mg/kg p.o., 4 h): 0 | behavioral or physical signs in mice ([2]; doses up to 100 mg/kg p.o.): No behavioral or physical signs were observed
